Results taken from ChEMBL document CHEMBL4312031, “Discovery of candesartan cilexetic as a novel neddylation inhibitor for suppressing tumor growth” (Eur J Med Chem, 2020).
Calls of active or inactive are those of the source. The rule behind the calls is not given here.

Columns and labels:
[1] = molecular target: T1, NEDD8/Cullin-1 (Homo sapiens) (UniProt Q13616+Q15843); assay: Inhibition of Nedd8-cullin1 (unknown origin) adduct formation assessed as decrease in cullin1 neddylation at 50 uM preincubated for 10 mins followed by ATP addition and measured after 30 mins by immunoblot analysis; type: protein assay
[2] = molecular target: T1, NEDD8/Cullin-1 (Homo sapiens); assay: Inhibition of Nedd8-cullin1 adduct formation in human A549 cells assessed as decrease in cullin1 neddylation at 100 uM incubated for 6 to 12 hrs by Western blot analysis; type: cell-based
NEDD8 activating enzyme = molecular target: T2, NEDD8 activating enzyme (Homo sapiens, UniProt Q8TBC4); assay: Binding affinity to biotin-labeled GST-tagged NAE (unknown origin) incubated for 1 hr by SPR assay; type: protein-complex assay
T2 sequence (Q8TBC4 whole entry): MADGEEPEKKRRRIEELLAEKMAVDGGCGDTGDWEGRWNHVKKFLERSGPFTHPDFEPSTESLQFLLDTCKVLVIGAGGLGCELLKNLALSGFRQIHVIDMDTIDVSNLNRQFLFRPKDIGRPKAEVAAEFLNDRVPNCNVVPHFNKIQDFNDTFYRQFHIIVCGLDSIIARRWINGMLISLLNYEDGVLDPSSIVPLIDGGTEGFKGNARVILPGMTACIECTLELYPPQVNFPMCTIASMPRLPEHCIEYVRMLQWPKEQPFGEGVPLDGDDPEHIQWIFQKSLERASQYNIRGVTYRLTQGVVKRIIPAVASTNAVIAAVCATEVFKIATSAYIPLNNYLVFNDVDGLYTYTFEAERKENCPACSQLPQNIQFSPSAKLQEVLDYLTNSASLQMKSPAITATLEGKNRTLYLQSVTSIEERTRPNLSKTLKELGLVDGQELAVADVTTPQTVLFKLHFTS
T2 sequence (Q13564 whole entry): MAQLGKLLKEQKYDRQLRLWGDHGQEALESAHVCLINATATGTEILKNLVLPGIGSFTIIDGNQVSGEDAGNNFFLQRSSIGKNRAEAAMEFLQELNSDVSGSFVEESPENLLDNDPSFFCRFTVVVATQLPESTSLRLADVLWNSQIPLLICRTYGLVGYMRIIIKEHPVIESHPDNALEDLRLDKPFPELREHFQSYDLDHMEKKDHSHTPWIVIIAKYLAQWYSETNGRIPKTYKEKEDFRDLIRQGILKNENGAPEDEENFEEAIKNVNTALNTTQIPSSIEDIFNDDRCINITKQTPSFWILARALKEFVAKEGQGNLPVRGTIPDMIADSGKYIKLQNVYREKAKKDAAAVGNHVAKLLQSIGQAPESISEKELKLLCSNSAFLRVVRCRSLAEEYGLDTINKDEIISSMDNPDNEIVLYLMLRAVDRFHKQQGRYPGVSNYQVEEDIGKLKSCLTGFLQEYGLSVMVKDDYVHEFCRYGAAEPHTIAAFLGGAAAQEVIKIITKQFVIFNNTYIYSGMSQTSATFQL

[3] = Toxicity in nude mouse xenografted with human A549 cells assessed as effect on body weight at 30 to 60 mg/kg, ip qd measured every 2 days; type: organism-based; conditions: in vivo, 48 h
[4] = molecular target: T1, NEDD8/Cullin-1 (Homo sapiens); assay: Inhibition of Nedd8-cullin1 adduct formation in human A549 cells assessed as decrease in cullin1 neddylation at 60 to 80 uM measured after 6 hrs by Western blot analysis; type: cell-based
Target sequence in this assay (Q13616 whole entry, looked up): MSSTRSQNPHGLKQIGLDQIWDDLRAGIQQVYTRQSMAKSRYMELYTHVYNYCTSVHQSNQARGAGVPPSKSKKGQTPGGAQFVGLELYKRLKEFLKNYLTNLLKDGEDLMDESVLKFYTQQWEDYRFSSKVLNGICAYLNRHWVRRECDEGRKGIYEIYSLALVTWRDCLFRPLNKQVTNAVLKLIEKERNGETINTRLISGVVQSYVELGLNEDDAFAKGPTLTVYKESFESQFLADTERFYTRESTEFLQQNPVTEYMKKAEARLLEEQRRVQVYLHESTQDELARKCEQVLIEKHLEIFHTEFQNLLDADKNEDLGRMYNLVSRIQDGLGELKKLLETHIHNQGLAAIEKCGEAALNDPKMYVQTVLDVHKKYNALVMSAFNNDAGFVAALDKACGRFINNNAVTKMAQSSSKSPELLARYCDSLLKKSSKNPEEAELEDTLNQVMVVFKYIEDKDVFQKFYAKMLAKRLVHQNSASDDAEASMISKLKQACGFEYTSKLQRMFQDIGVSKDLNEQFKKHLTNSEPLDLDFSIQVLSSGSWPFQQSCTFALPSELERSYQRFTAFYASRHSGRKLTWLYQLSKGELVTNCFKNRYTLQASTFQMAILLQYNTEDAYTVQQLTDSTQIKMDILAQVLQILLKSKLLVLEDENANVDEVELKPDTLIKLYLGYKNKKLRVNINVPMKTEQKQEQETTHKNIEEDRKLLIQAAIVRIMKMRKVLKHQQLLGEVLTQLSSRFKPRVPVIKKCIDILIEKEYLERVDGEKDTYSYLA
Target sequence in this assay (Q15843 whole entry, looked up): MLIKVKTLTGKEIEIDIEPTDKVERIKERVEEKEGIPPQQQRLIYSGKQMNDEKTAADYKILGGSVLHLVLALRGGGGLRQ

Huh-7 [5] = assay: Antiproliferative activity against human HuH7 cells measured after 48 hrs by CCK8 assay; type: functional, cell-based; conditions: Huh-7, 48 h
PLC [6] = assay: Antiproliferative activity against human PLC cells measured after 72 to 96 hrs by CCK8 assay; type: functional, cell-based
MGC-803 [7] = assay: Antiproliferative activity against human MGC803 cells measured after 72 to 96 hrs by CCK8 assay; type: functional, cell-based
NCI-H1299 [8] = assay: Antiproliferative activity against human H1299 cells measured after 48 hrs by CCK8 assay; type: functional, cell-based; conditions: NCI-H1299, 48 h
NCI-H1299 [9] = assay: Antiproliferative activity against human H1299 cells measured after 72 to 96 hrs by CCK8 assay; type: functional, cell-based
T47D [10] = assay: Antiproliferative activity against human T47D cells measured after 72 to 96 hrs by CCK8 assay; type: functional, cell-based
EKVX [11] = assay: Antiproliferative activity against human EKVX cells measured after 48 hrs by CCK8 assay; type: functional, cell-based
A549 [12] = assay: Antitumor activity against human A549 cells xenografted in nude mouse assessed as decrease in tumor weight at 60 mg/kg, ip qd measured after 22 days; type: functional, organism-based
MKN-45 [13] = assay: Antiproliferative activity against human MKN45 cells measured after 48 hrs by CCK8 assay; type: functional, cell-based; conditions: MKN-45, 48 h
HepG2 [14] = assay: Antiproliferative activity against human HepG2 cells measured after 72 to 96 hrs by CCK8 assay; type: functional, cell-based
MKN-45 [15] = assay: Antiproliferative activity against human MKN45 cells measured after 72 to 96 hrs by CCK8 assay; type: functional, cell-based
EKVX [16] = assay: Antiproliferative activity against human EKVX cells measured after 72 to 96 hrs by CCK8 assay; type: functional, cell-based
MCF7 [17] = assay: Antiproliferative activity against human MCF7 cells measured after 72 to 96 hrs by CCK8 assay; type: functional, cell-based
MCF7 [18] = assay: Antiproliferative activity against human MCF7 cells measured after 48 hrs by CCK8 assay; type: functional, cell-based; conditions: MCF7, 48 h
[19] = Toxicity in nude mouse xenografted with human A549 cells assessed as effect on body weight at 60 mg/kg, ip qd measured every 2 days; type: organism-based; conditions: in vivo, 48 h
[20] = molecular target: T1, NEDD8/Cullin-1 (Homo sapiens); assay: Inhibition of Nedd8-cullin1 (unknown origin) adduct formation assessed as decrease in cullin1 neddylation at 10 uM preincubated for 10 mins followed by ATP addition and measured after 30 mins by immunoblot analysis; type: protein assay
Target sequence in this assay (Q13616 whole entry, looked up): as the sequence (Q13616 whole entry, looked up) above
Target sequence in this assay (Q15843 whole entry, looked up): as the sequence (Q15843 whole entry, looked up) above

Huh-7 [21] = assay: Antiproliferative activity against human HuH7 cells measured after 72 to 96 hrs by CCK8 assay; type: functional, cell-based
T47D [22] = assay: Antiproliferative activity against human T47D cells measured after 48 hrs by CCK8 assay; type: functional, cell-based
HepG2 [23] = assay: Antiproliferative activity against human HepG2 cells measured after 48 hrs by CCK8 assay; type: functional, cell-based; conditions: HepG2, 48 h
MGC-803 [24] = assay: Antiproliferative activity against human MGC803 cells measured after 48 hrs by CCK8 assay; type: functional, cell-based; conditions: MGC-803, 48 h
PLC [25] = assay: Antiproliferative activity against human PLC cells measured after 48 hrs by CCK8 assay; type: functional, cell-based
A549 [26] = assay: Antitumor activity against human A549 cells xenografted in nude mouse assessed as decrease in tumor size at 60 mg/kg, ip qd measured after 22 days; type: functional, organism-based
[27] = molecular target: T1, NEDD8/Cullin-1 (Homo sapiens); assay: Inhibition of Nedd8-cullin1 adduct formation in human A549 cells assessed as decrease in cullin1 neddylation at 75 uM measured after 6 hrs by Western blot analysis; type: cell-based
Target sequence in this assay (Q13616 whole entry, looked up): as the sequence (Q13616 whole entry, looked up) above
Target sequence in this assay (Q15843 whole entry, looked up): as the sequence (Q15843 whole entry, looked up) above

[28] = molecular target: T1, NEDD8/Cullin-1 (Homo sapiens); assay: Inhibition of Nedd8-cullin1 adduct formation in human A549 cells assessed as decrease in cullin1 neddylation at 50 uM measured after 6 hrs by Western blot analysis; type: cell-based
Target sequence in this assay (Q13616 whole entry, looked up): as the sequence (Q13616 whole entry, looked up) above
Target sequence in this assay (Q15843 whole entry, looked up): as the sequence (Q15843 whole entry, looked up) above

CCCCCCCCCCCCCCCC[n+]1ccccc1
inhibition [1]: Active | inhibition [2]: inactive

BISMUTH SUBCITRATE POTASSIUM
inhibition [1]: Active | inhibition [2]: inactive

CCOc1nc2cccc(C(=O)OC(C)OC(=O)OC3CCCCC3)c2n1Cc1ccc(-c2ccccc2-c2nnn[nH]2)cc1 (stereo not drawn) [CANDESARTAN CILEXETIL]
Kd (NEDD8 activating enzyme): 195000 nM | Activity [3]: Non-Toxic

Clc1ccc(CCNC2CCN(Cc3ccccc3)CC2)c(Cl)c1
inhibition [4]: Active

CN1CCN(CCCN2c3ccccc3Sc3ccc(C(F)(F)F)cc32)CC1
inhibition [1]: Active | inhibition [2]: inactive

NS(=O)(=O)OC[C@@H]1C[C@@H](n2ccc3c(N[C@H]4CCc5ccccc54)ncnc32)C[C@@H]1O [PEVONEDISTAT]
IC50 (Huh-7 [5]): > 10000 nM | IC50 (PLC [6]): 300 to 1200 nM | IC50 (MGC-803 [7]): 300 to 1200 nM | IC50 (NCI-H1299 [8]): > 10000 nM | IC50 (NCI-H1299 [9]): 300 to 1200 nM | IC50 (T47D [10]): 300 to 1200 nM | IC50 (EKVX [11]): > 10000 nM | Activity (A549 [12]): Active | IC50 (MKN-45 [13]): > 10000 nM | IC50 (HepG2 [14]): 300 to 1200 nM | IC50 (MKN-45 [15]): 300 to 1200 nM | IC50 (EKVX [16]): 300 to 1200 nM | IC50 (MCF7 [17]): 300 to 1200 nM | IC50 (MCF7 [18]): > 10000 nM | Activity [19]: Non-Toxic | inhibition [20]: Active | IC50 (Huh-7 [21]): 300 to 1200 nM | IC50 (T47D [22]): > 10000 nM | IC50 (HepG2 [23]): > 10000 nM | IC50 (MGC-803 [24]): > 10000 nM | IC50 (PLC [25]): > 10000 nM | Activity (A549 [26]): Active

O=C1c2c(O)ccc(O)c2C(=O)c2c(NCCNCCO)ccc(NCCNCCO)c21
inhibition [27]: Active | inhibition [28]: inactive
